Measurements taken from patent US6696487B2, “Fungicidal phenyl(thio)urea and phenyl(thio)carbamate derivatives” (Bayer Cropscience S.A., priority 2000, dated 2004).

melting point: 125 °C
Compound: CCN(C)C(=S)Nc1cc(C)c(Oc2cccc(C(C)(C)C)c2)cc1C [Compound 27, N′-(4-{[3-(1,1-dimethylethyl)phenyl]oxy}-2,5-dimethylphenyl)-N-ethyl-N-methylthiourea]
